The source made the active and inactive calls. Cut-off read from the data, not from the text of the source, for most assays here: active = IC50 of 10 µM or less and inactive = more.
Legend:
cells = format: functional, cell-based; details: HEK-CNG
Galanin receptor type 3 = target: T1, Galanin receptor type 3 (Homo sapiens, UniProt O60755); experiment: Fluorescence-based cell-based primary high throughput dose response assay to identify antagonists of the Galanin Receptor 3 (GalR3).; format: functional
T1 sequence (O60755 whole entry): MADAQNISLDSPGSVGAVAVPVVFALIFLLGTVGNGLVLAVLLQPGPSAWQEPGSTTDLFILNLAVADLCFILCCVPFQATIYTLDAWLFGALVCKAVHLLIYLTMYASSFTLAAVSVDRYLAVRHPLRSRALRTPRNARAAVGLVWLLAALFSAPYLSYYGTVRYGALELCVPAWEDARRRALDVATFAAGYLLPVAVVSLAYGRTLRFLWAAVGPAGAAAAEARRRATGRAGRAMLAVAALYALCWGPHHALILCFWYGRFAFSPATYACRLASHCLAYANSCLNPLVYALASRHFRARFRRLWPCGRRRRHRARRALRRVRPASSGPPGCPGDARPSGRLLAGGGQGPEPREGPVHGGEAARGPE

[1] = target: T2, Hepatocyte nuclear factor 4-alpha (Homo sapiens, UniProt P41235); format: functional, cell-based;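 note: biochemical luminescence-based dose-response counterscreen measuring inhibition of HNF4 dimerization, run alongside a screen for blockers of ABHD5–perilipin-5 interaction; split luciferase complementation of HNF4 fusion proteins in cell lysate measuring dimerization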
T2 sequence (P41235 whole entry): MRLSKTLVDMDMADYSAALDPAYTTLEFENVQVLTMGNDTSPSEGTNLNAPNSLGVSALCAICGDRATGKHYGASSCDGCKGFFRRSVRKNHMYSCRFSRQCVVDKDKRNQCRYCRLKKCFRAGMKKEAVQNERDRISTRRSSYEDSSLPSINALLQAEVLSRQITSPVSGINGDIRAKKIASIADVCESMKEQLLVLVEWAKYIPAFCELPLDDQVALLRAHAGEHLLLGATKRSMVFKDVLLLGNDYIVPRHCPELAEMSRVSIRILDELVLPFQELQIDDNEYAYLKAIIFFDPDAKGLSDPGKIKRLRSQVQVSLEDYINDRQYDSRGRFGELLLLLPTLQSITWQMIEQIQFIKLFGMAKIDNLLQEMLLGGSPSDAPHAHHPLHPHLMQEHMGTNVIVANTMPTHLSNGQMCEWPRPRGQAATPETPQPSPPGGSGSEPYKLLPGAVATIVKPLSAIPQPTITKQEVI

Orexin receptor type 2 [2] = target: T3, Orexin receptor type 2 (Homo sapiens, UniProt O43614); experiment: Counterscreen assay for antagonists of the orexin 1 receptor (OX1R; HCRTR1): Homogeneous Time Resolved Fluorescence (HTRF)-based cell-based dose response assay for antagonists of the orexin 2 receptor (OX2R; HCRTR2), run by assay provider.; format: functional
T3 sequence (O43614 whole entry): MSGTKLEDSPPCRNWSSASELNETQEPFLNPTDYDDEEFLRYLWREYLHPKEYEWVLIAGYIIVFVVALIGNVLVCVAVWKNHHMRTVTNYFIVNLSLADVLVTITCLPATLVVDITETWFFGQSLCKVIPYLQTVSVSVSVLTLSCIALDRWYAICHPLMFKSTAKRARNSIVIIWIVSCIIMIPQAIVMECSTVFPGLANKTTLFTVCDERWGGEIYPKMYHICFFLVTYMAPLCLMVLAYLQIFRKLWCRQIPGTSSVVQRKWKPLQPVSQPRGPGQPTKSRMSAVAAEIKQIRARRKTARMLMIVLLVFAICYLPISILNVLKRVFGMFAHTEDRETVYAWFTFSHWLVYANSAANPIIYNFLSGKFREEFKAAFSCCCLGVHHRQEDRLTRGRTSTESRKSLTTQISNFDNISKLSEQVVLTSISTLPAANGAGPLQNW

[3] = (§1) Counterscreen for antagonists of the orexin 1 receptor (OX1R; HCRTR1): Fluorescence-based cell-based high throughput dose response assay to identify antagonists of the parental CHO cell line. [Related pubchem assays (depositor defined):AID434989, AID435008, AID463079, AID485270, AID492963, AID492964, AID492965, AID493232, AID504699, AID504701]; format: functional
[4] = target: T4, Orexin/Hypocretin receptor type 1 (Homo sapiens, UniProt O43613); experiment: (§2) Fluorescence-based cell-based high throughput dose response assay for antagonists of the orexin 1 receptor (OX1R; HCRTR1). [Related pubchem assays (depositor defined):AID434989, AID435008, AID463079, AID485270, AID492963, AID492964, AID492965, AID493232, AID504717, AID504718]; format: functional
T4 sequence (O43613 whole entry): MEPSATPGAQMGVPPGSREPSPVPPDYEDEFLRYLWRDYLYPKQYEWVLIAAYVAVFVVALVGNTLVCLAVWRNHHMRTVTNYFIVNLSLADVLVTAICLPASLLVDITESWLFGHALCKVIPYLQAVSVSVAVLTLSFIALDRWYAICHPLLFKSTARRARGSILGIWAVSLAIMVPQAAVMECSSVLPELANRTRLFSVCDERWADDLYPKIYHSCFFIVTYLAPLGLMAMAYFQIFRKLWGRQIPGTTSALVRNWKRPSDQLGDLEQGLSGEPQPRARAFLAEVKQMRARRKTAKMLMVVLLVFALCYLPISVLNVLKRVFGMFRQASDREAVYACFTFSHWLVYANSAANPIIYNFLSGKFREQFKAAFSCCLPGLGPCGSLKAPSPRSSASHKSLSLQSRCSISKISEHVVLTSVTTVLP

[5] = target: T4, Orexin/Hypocretin receptor type 1; experiment: as §2, with “Homogeneous Time Resolved Fluorescence (HTRF)-based” for “Fluorescence-based”; format: functional
CHO-K1 = experiment: as §1, with “Homogeneous time resolved fluorescence (HTRF)-based” for “Fluorescence-based”, “cell-based” for “cell-based high throughput”, “CHO-K1” for “CHO”; format: functional; details: Cricetulus griseus;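 note: potency for inhibition of ATP-stimulated IP1 production as antagonists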
Orexin receptor type 2 [6] = target: T3, Orexin receptor type 2; experiment: Counterscreen assay for antagonists of the orexin 1 receptor (OX1R; HCRTR1): Fluorescence-based cell-based dose response assay for antagonists of the orexin 2 receptor (OX2R; HCRTR2), run by assay provider.; format: functional
[7] = target: Heat shock protein HSP 90-alpha (Homo sapiens, UniProt P07900); format: functional, organism-based
Vero = experiment: viability loss in Vero cells – cell-based, plate reader, cherry-pick samples, cytotoxicity control, dose response (AID 687020); format: functional; details: Chlorocebus sabaeus
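Throughout, for EC50: target is galanin receptor GalR3 read with a cAMP biosensor in HEK293 cells.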

N#Cc1nc(N2CCCC2)nc(N2CCCC2)n1
EC50 (cells): > 29.9 µM (inactive)
IC50 (Galanin receptor type 3): 1.81 µM (active)

N#Cc1ccc(C(C(=O)Nc2ccc3c(c2)OCCO3)n2c(=O)c(-c3ccco3)nc3ccccc32)cc1 (configuration not stated)
IC50 [1]: 9.98 µM (active)

Cc1cc(C)n2nc(-c3cccc(Br)c3)cc2n1
IC50 (Orexin receptor type 2 [2]): > 50 µM (inactive)
IC50 [3]: > 49.7 µM (inactive)
IC50 [4]: 9.69 µM (active)
IC50 [5]: 2.05 µM (active)
IC50 (CHO-K1): > 66.2 µM (inactive)
IC50 (Orexin receptor type 2 [6]): > 88.8 µM (inactive)

Cc1c(C(=O)NCCSCc2cccc(C(F)(F)F)c2)cnn1-c1ccc(Cl)cc1
AC50 [7]: 7.25 µM (active)

Cc1ccc(O)c(C(=O)C=Cc2ccccc2)c1
IC50 [1]: 4 µM (active)

Cc1c(C(=O)NCc2cccnc2)oc2ccc(S(=O)(=O)N3CC(C)CC(C)C3)cc12 (configuration not stated)
AC50 (Vero): 32.4 µM (active)

— ChEMBL document CHEMBL1201862, “PubChem BioAssay data set” (2004)
